Measured values from patent US20220324835A1 (Nurix Therapeutics, Inc., priority 2018, published 2022).
pIC50: −log10 of the molar value.

Legend:
[1] = target: T1, Cbl-b (Homo sapiens, UniProt Q13191); test: Cbl-b inhibition assay (Cbl-b activity assay, FRET, Biological Example 1; 100 mM NaCl, 60 nM Src kinase); type: biochemical; settings: upper bound stated in text lists; read-out: IC50 values in the Cbl-b inhibition assay of Biological Example 1
Excerpt: FIG. 1A and FIG. 1B show a series of diagrams depicting the activity assay utilized to assay inhibition of Cbl-b activity by a Cbl-b inhibitor. FIG. 1A: The activity assay mixture comprises an N-terminal biotinylated Avi-tagged Cbl-b, an E2 enzyme (i.e., UbcH5B) irreversibly conjugated to Bodipy-Fluorescein tagged ubiquitin (i.e., UbcH5B-Ub), a Src kinase, streptavidin-terbium, and assay buffer. Phosphorylation of Cbl-b by the Src kinase allows UbcH5B-Ub to bind to Cbl-b and bring the Bodipy-Fluorescein tagged ubiquitin in proximity to the streptavidin-terbium bound to the N-terminal biotinylated Avi-tagged Cbl-b. […] FIG. 1B: In the presence of a Cbl-b inhibitor, such as one described herein, Cbl-b is unable to bind UbcH5B-Ub. The lack of a FRET signal indicates Cbl-b is inhibited by the Cbl-b inhibitor. Ub indicates ubiquitin; N-Avi indicates biotinylated Avi-tag at the N-terminus of Cbl-b; inhibitor indicates Cbl-b inhibitor.
The lack of a FRET signal indicates Cbl-b is inhibited by the Cbl-b inhibitor. In FIG. 1A and FIG. 1B, Ub indicates ubiquitin; N-Avi indicates biotinylated Avi-tag at the N-terminus of Cbl-b; and inhibitor indicates Cbl-b inhibitor.

[2] = target: T1, Cbl-b; test: Cbl-b activity assay (Cbl-b inhibition assay), TR-FRET of Cbl-b interaction with UbcH5B-Ub; type: biochemical; settings: assay buffer with 100 mM NaCl, 60 nM Src kinase; read-out: Cbl-b activity IC50
Summary of the method: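 UbcH5B (C85K) conjugated to N-terminally Bodipy-Fluorescein-labeled ubiquitin served as the fluorescent partner. After compound preincubation, Src kinase (60 nM) with 1 mM ATP and 5 mM MgCl2 (final) was added for 1.5 h, followed by a further 1 h incubation. Some values were obtained with 50 mM NaCl and 30 nM Src.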

T1 sequence (Q13191 36-427): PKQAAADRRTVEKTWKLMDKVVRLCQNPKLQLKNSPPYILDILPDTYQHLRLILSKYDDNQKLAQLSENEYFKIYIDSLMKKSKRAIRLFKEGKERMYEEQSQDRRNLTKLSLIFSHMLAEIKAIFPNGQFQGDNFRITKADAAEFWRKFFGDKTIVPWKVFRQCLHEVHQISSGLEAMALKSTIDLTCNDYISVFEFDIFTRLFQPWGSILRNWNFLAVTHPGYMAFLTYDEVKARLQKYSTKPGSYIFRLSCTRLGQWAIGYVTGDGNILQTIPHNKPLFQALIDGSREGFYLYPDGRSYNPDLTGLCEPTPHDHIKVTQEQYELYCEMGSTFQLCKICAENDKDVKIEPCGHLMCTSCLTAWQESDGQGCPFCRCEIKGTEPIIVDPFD

Compound | pIC50 [1] | pIC50 [2]
Cn1cnnc1CC1(c2cccc(N3Cc4c(cc(CN5CCc6cccnc6C5)cc4C(F)(F)F)C3=O)c2)COC1 [Example 645, 6-((5,8-dihydro-1,7-naphthyridin-7(6H)-yl)methyl)-2-(3-(3-((4-methyl-4H-1,2,4-triazol-3-yl)methyl)oxetan-3-yl)phenyl)-4-(trifluoromethyl)isoindolin-1-one] | ≥ 7.00 | > 7.00
C[C@@H]1CN(Cc2cc(C(=O)Nc3cccc(C4(Cc5nncn5C)COC4)c3)nc(C3CC3)c2)CCO1 [Compound 501, 6-cyclopropyl-N-(3-{3-[(4-methyl-1,2,4-triazol-3-yl)methyl]oxetan-3-yl}phenyl)-4-{[(2R)-2-methylmorpholin-4-yl]methyl}pyridine-2-carboxamide] | ≥ 7.00 | > 7.00
CC(c1nncn1C)C1(c2cccc(N3Cc4c(cc(CN5CCC6(CC6)C5)cc4C(F)(F)F)C3=O)c2)COC1 (centres unmarked) [Example 701, 6-((5-azaspiro[2.4]heptan-5-yl)methyl)-2-(3-(3-(1-(4-methyl-4H-1,2,4-triazol-3-yl)ethyl)oxetan-3-yl)phenyl)-4-(trifluoromethyl)isoindolin-1-one] | ≥ 6.00 | 6.00 to 6.52
CN1CC[C@@H](O)[C@H](Cc2cc3c(c(C(F)(F)F)c2)CN(c2cccc(C4(Cc5nncn5C)COC4)c2)C3=O)C1 (single isomer, unassigned) [Compound 533] | ≥ 7.00 | > 7.00
Cn1cnnc1CC1(c2cccc(N3Cc4c(cc(CN5CC6CC(C5)C6(F)F)cc4C(F)(F)F)C3=O)c2)COC1 [Example 640, 6-((6,6-difluoro-3-azabicyclo[3.1.1]heptan-3-yl)methyl)-2-(3-(3-((4-methyl-4H-1,2,4-triazol-3-yl)methyl)oxetan-3-yl)phenyl)-4-(trifluoromethyl)isoindolin-1-one] | ≥ 7.00 | > 7.00
C[C@@H]1CN(Cc2cc3c(c(C(F)(F)F)c2)CN(c2cccc(-c4c(-c5nncn5C)cnn4C)c2)C3=O)C[C@H](C)O1 [Compound 525, 6-(((2S,6S)-2,6-dimethylmorpholino)methyl)-2-(3-(l-methyl-4-(4-methyl-4H-1,2,4-triazol-3-yl)-1H-pyrazol-5-yl)phenyl)-4-(trifluoromethyl)isoindolin-1-one] | ≥ 7.00 | > 7.00
C[C@H](Cc1nncn1C)c1cccc(NC(=O)c2cc(C(=O)N3CCC4(CCO4)C3)ccn2)c1 (stereo partly drawn) [Compound 237, N-[3-[(2R)-1-(4-methyl-4H-1,2,4-triazol-3-yl)propan-2-yl]phenyl]-4-[1-oxa-6-azaspiro[3.4]octane-6-carbonyl]pyridine-2-carboxamide] | ≥ 5.00 | 5.00 to 5.52
Cc1ccn(CC(C)c2cccc(NC(=O)c3cccc(C(F)(F)F)n3)c2)n1 (centres unmarked) [Compound 216, N-(3-(1-(3-methyl-1H-pyrazol-1-yl)propan-2-yl)phenyl)-6-(trifluoromethyl)picolinamide] | ≥ 5.00 | 5.00 to 5.52
CC(Sc1nncn1C)c1cncc(NC(=O)c2cccc(C(F)(F)F)n2)c1 (centres unmarked) [Compound 127, N-[5-[1-[(4-methyl-1,2,4-triazol-3-yl)sulfanyl]ethyl]-3-pyridyl]-6-(trifluoromethyl)pyridine-2-carboxamide] | ≥ 5.00 | 5.00 to 5.52
CN(c1cc2c(c(C(F)(F)F)c1)CN(c1cccc([C@@](C)(F)C(F)(F)c3nncn3C)c1)C2=O)[C@@H]1CNC[C@H]1F [Example 551, 6-(((3R,4R)-4-fluoropyrrolidin-3-yl)(methyl)amino)-2-(3-((R)-1,1,2-trifluoro-1-(4-methyl-4H-1,2,4-triazol-3-yl)propan-2-yl)phenyl)-4-(trifluoromethyl)iso-indolin-1-one] | ≥ 7.00 | > 7.00
C[C@@H]1CN(Cc2cc3c(c(C(F)(F)F)c2)CN(c2cccc(-c4c(-c5nncn5C)cnn4C)c2)C3=O)CCO1 [Compound 524, (R)-2-(3-(l-methyl-4-(4-methyl-4H-1,2,4-triazol-3-yl)-1H-pyrazol-5-yl)phenyl)-6-((2-methylmorpholino)methyl)-4-(trifluoromethyl)isoindolin-1-one] | ≥ 7.00 | > 7.00
C[C@H](Sc1nncn1C)c1cccc(NC(=O)c2cccc(N)c2)c1 [Compound 58, (S)-3-amino-N-(3-(1-((4-methyl-4H-1,2,4-triazol-3-yl)thio)ethyl)phenyl)benzamide] | ≥ 5.00 | 5.00 to 5.52
CC(Sc1nncn1C)c1ccc(OC(F)(F)F)c(NC(=O)c2cccc(C(F)(F)F)n2)c1 (centres unmarked) [Compound 94, N-(5-(1-((4-methyl-4H-1,2,4-triazol-3-yl)thio)ethyl)-2-(trifluoromethoxy)phenyl)-6-(trifluoromethyl)picolinamide] | ≥ 5.00 | 5.52 to 6.00
Cc1cc(C(=O)Nc2cccc(C3(Cc4nncn4C)COC3)c2)n2nc(C)cc2n1 [Example 597, 2,5-dimethyl-N-(3-(3-((4-methyl-4H-1,2,4-triazol-3-yl)methyl)oxetan-3-yl)phenyl)pyrazolo[1,5-a]pyrimidine-7-carboxamide] | ≥ 6.52 | 6.52 to 7.00
Cn1cnnc1C(F)(F)[C@@](C)(F)c1cccc(N2Cc3c(cccc3C(F)(F)F)C2=O)c1 [Compound 296b, (S)-2-(3-(1,1,2-trifluoro-1-(4-methyl-4H-1,2,4-triazol-3-yl)propan-2-yl)phenyl)-4-(trifluoromethyl)isoindolin-1-one] | ≥ 5.00 | 5.00 to 5.52
Cn1cnnc1CC1(c2cccc(N3Cc4c(cc(CN5CC[C@@H]6OCC[C@@H]6C5)cc4C(F)(F)F)C3=O)c2)COC1 (relative stereo) [Example 708, rel-6-[(3aR,7aS)-hexahydro-2H-furo[3,2-c]pyridin-5-ylmethyl]-2-(3-{3-[(4-methyl-1,2,4-triazol-3-yl)methyl]oxetan-3-yl}phenyl)-4-(trifluoromethyl)-3H-isoindol-1-one] | ≥ 7.00 | > 7.00
C[C@H](Cc1nncn1C)c1cccc(NC(=O)c2ccn(C)n2)c1 [Compound 197, (R)-1-methyl-N-(3-(1-(4-methyl-4H-1,2,4-triazol-3-yl)propan-2-yl)phenyl)-1H-pyrazole-3-carboxamide] | ≥ 5.00 | 5.52 to 6.00
C[C@H](Sc1nncn1C)c1cccc(NC(=O)c2cc(C(=O)N3CCC[C@H]3C)ccn2)c1 [Compound 142, N-(3-((S)-1-((4-methyl-4H-1,2,4-triazol-3-yl)thio)ethyl)phenyl)-4-((R)-2-methylpyrrolidine-1-carbonyl)picolinamide] | ≥ 5.00 | < 5.00
C[C@H](Sc1nncn1C)c1cccc(NC(=O)c2cccc(N(C)C)c2)c1 [Compound 26, (S)-3-(Dimethylamino)-N-(3-(1-((4-methyl-4H-1,2,4-triazol-3-yl)thio)ethyl)phenyl)benzamide] | ≥ 5.00 | < 5.00
Cn1cnnc1CC(C)(O)c1cccc(N2Cc3c(cccc3C(F)(F)F)C2=O)c1 (centres unmarked) [Compound 297, 2-(3-(2-hydroxy-1-(4-methyl-4H-1,2,4-triazol-3-yl)propan-2-yl)phenyl)-4-(trifluoromethyl)isoindolin-1-one] | ≥ 5.00 | 5.00 to 5.52
C[C@H](Sc1nncn1C)c1ccnc(NC(=O)c2noc3ccccc23)c1 [Compound 115, (S)-N-(4-(1-((4-methyl-4H-1,2,4-triazol-3-yl)thio)ethyl)pyridin-2-yl)benzo[d]isoxazole-3-carboxamide] | ≥ 5.00 | 5.00 to 5.52
C[C@H](Sc1nncn1C)c1cccc(NC(=O)c2cc3ccccc3c(C(F)(F)F)n2)c1 [Compound 63, (S)-N-(3-(1-((4-methyl-4H-1,2,4-triazol-3-yl)thio)ethyl)phenyl)-1-(trifluoromethyl)isoquinoline-3-carboxamide] | ≥ 5.00 | 5.00 to 5.52
CN(c1cc2c(c(C(F)(F)F)c1)CN(c1cccc([C@@](C)(F)C(F)(F)c3nncn3C)c1)C2=O)[C@H]1CNC[C@@H]1F [Example 550, 6-(((3S,4S)-4-fluoropyrrolidin-3-yl)(methyl)amino)-2-(3-((R)-1,1,2-trifluoro-1-(4-methyl-4H-1,2,4-triazol-3-yl)propan-2-yl)phenyl)-4-(trifluoromethyl)iso-indolin-1-one] | ≥ 7.00 | > 7.00
Cn1cnnc1CC1(c2cccc(N3Cc4c(cc(CN5Cc6cccc(C#N)c6C5)cc4C(F)(F)F)C3=O)c2)COC1 [Example 658, 2-((2-(3-(3-((4-methyl-4H-1,2,4-triazol-3-yl)methyl)oxetan-3-yl)phenyl)-3-oxo-7-(trifluoromethyl)isoindolin-5-yl)methyl)isoindoline-4-carbonitrile] | ≥ 7.00 | > 7.00
Cn1cnnc1CC1(c2cccc(N3Cc4c(cc(CN5Cc6ccc(Cl)cc6C5)cc4C(F)(F)F)C3=O)c2)COC1 [Example 659, 6-((5-chloroisoindolin-2-yl)methyl)-2-(3-(3-((4-methyl-4H-1,2,4-triazol-3-yl)methyl)oxetan-3-yl)phenyl)-4-(trifluoromethyl)isoindolin-1-one] | ≥ 7.00 | > 7.00
